Read-outs that look alike come from different tables or passages of the source.
How the values were obtained:
[1] = target: GDP-bound KRAS wild-type protein (Homo sapiens, UniProt P01116); test: Binding to KRAS by surface plasmon resonance (SPR), Single Cycle Kinetics; conditions: SPR, Single Cycle Kinetics, GDP-bound KRAS wild-type protein, read-out: KRAS KD
[2] = system: human lung cancer strain NCI-H441;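 further: cell proliferation inhibition after four days measured by CellTiter-Glo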
[3] = target: GDP-bound HRAS wild-type protein (Homo sapiens, UniProt P01112); test: Binding to HRAS by surface plasmon resonance (SPR), Single Cycle Kinetics; conditions: SPR, GDP-bound HRAS wild-type protein vs GDP-bound KRAS wild-type protein
Chain of GDP-bound HRAS wild-type protein (P01112 whole entry): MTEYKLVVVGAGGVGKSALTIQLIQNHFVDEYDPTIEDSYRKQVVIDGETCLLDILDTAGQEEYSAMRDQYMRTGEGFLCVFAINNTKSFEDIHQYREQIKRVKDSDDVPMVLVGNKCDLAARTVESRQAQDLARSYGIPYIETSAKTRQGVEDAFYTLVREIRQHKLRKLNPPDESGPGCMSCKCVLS

[4] = target: GDP-bound NRAS wild-type protein (Homo sapiens, UniProt P01111); test: Binding to NRAS by surface plasmon resonance (SPR), Single Cycle Kinetics; conditions: SPR, GDP-bound NRAS wild-type protein vs GDP-bound KRAS wild-type protein
Chain of GDP-bound NRAS wild-type protein (P01111 whole entry): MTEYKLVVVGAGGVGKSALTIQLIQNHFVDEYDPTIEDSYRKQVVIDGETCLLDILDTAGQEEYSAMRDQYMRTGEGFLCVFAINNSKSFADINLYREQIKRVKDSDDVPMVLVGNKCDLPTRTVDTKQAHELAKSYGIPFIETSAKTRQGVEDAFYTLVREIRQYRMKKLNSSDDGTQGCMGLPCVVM

Chain of GDP-bound KRAS wild-type protein (P01116 whole entry): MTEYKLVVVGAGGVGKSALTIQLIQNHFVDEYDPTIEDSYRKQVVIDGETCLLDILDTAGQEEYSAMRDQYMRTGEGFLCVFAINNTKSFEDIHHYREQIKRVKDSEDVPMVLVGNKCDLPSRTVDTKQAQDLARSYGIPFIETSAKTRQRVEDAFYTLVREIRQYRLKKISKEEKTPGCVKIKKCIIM

Row | Kd ([1]; 1:1 binding model) [nM] | IC50 [2] [nM] | Kd [1] [nM] | Structure (SMILES) | HRAS/KRAS (ratio of KD value for HRAS to KD value for KRAS) ([3]; KD ratio class) | NRAS/KRAS (ratio of KD value for NRAS to KD value for KRAS) ([4]; KD ratio class) | HRAS/KRAS (ratio of KD value for HRAS to KD value for KRAS) [3] | NRAS/KRAS (ratio of KD value for NRAS to KD value for KRAS) [4]
1 | 0.047 | 3.3 |  | CCO[C@@H]1C[C@H]2C(=O)NC3(CCCC3)C(=O)N(C)[C@@H](C3CCCC3)C(=O)N(C)[C@H](C(=O)N(C)C)CC(=O)N(C)[C@@H](CC3CC3)C(=O)N[C@@H]([C@@H](C)CC)C(=O)N(C)CC(=O)N(C)[C@H]3C[C@@H](C)[C@@H](C)CN(C3=O)[C@@H](Cc3ccc(C(F)(F)F)cc3)C(=O)N(C)CC(=O)N[C@@H](CCc3cc(F)c(C(F)(F)F)c(F)c3)C(=O)N2C1 [PP1356] | B (a compound having 3 or more and less than 10 is denoted as B) | B (a compound having 3 or more and less than 10 is denoted as B) |  | 
2 |  | 21.3 | 0.23 | CCOC[C@H]1C(=O)N[C@@H]([C@@H](C)CC)C(=O)N(C)CC(=O)N(C)[C@H]2C/C=C\CCN(C2=O)[C@@H](Cc2ccc(C)cc2)C(=O)N(C)CC(=O)N[C@@H](CCc2cc(F)c(C(F)(F)F)c(F)c2)C(=O)N2C[C@H](OCC)C[C@H]2C(=O)NC2(CC(C)(C)C2)C(=O)N(C)[C@@H](C2CCCC2)C(=O)N(C)[C@H](C(=O)N(CC)CC)CC(=O)N1C [PP2408] |  |  | A (a compound having 10 or more and less than 20 is denoted as A) | A (a compound having 10 or more and less than 20 is denoted as A)
3 | 0.57 | 41.2 |  | CCO[C@@H]1C[C@H]2C(=O)NC3(CCC3)C(=O)N(C)[C@@H](C(CC)CC)C(=O)N(C)[C@H](C(=O)N(C)C)CC(=O)N(C)[C@@H](CC3CCCC3)C(=O)N[C@@H]([C@@H](C)CC)C(=O)N(C)CC(=O)N(C)[C@H]3C/C=C\CCN(C3=O)[C@@H](CC3CCC(F)(F)CC3)C(=O)N(C)CC(=O)N[C@@H](CCc3cc(F)c(C(F)(F)F)c(F)c3)C(=O)N2C1 [PP1431] | A (a compound having 10 or more and less than 20 is denoted as A) | AA (a compound having 20 or more is denoted as AA) |  | 
4 |  | 33.1 | 0.29 | CCCO[C@H](C)[C@@H]1NC(=O)[C@H](CC(C)C)N(C)C(=O)C[C@@H](C(=O)N(C)CC)N(C)C(=O)[C@H](C2CCCC2)N(C)C(=O)C2(CC(C)(C)C2)NC(=O)[C@@H]2C[C@H](C)CN2C(=O)[C@H](CCc2ccc(C(F)(F)F)c(OC)c2)NC(=O)CN(C)C(=O)[C@H](Cc2ccc(C)cc2)N2CC/C=C\C[C@@H](C2=O)N(C)C(=O)CN(C)C1=O [PP2416] |  |  | B (a compound having 3 or more and less than 10 is denoted as B) | A (a compound having 10 or more and less than 20 is denoted as A)
5 |  | 73.1 | 0.15 | CCO[C@@H]1C[C@H]2C(=O)NC3(CCC3)C(=O)N(C)[C@@H](C3CCCC3)C(=O)N(C)[C@H](C(=O)N(C)C)CC(=O)N(C)[C@@H](Cc3ccccc3C#N)C(=O)N[C@@H]([C@@H](C)CC)C(=O)N(C)CC(=O)N(C)[C@H]3CCCCCN(C3=O)[C@@H](Cc3ccc(F)cc3)C(=O)N(C)CC(=O)N[C@@H](CCc3cc(F)c(C(F)(F)F)c(F)c3)C(=O)N2C1 [PP1155] |  |  | B (a compound having 3 or more and less than 10 is denoted as B) | B (a compound having 3 or more and less than 10 is denoted as B)
6 | 0.14 | 11 |  | CCC[C@H]1C(=O)N[C@@H]([C@@H](C)CC)C(=O)N(C)CC(=O)N(C)[C@H]2C/C=C\CCN(C2=O)[C@@H](Cc2ccc(C(F)(F)F)cc2)C(=O)N(C)CC(=O)N[C@@H](CCc2cc(F)c(C(F)(F)F)c(F)c2)C(=O)N2C[C@H](OCC)C[C@H]2C(=O)NC2(CCC2)C(=O)N(C)[C@@H](C2CCCC2)C(=O)N(C)[C@H](C(=O)N2CCCC2)CC(=O)N1C [PP1299, (2S,8S,12R,14S,20S,23S,27S,30S,36S,38Z)-20-cyclopentyl-8-[2-[3,5-difluoro-4-(trifluoromethyl)phenyl]ethyl]-12-ethoxy-4,19,22,26,32,35-hexamethyl-30-[(1S)-1-methylpropyl]-27-propyl-23-(pyrrolidine-1-carbonyl)-2-[[4-(trifluoromethyl)phenyl]methyl]spiro[1,4,7,10,16,19,22,26,29,32,35-undecazatricyclo[34.5.1.0^10,14]dotetracont-38-ene-17,1′-cyclobutane]-3,6,9,15,18,21,25,28,31,34,42-undecone] | A (a compound having 10 or more and less than 20 is denoted as A) | A (a compound having 10 or more and less than 20 is denoted as A) |  | 
7 | 0.18 | 55.4 |  | CCO[C@@H]1C[C@H]2C(=O)NC3(CCC3)C(=O)N(C)[C@@H](C3CCCC3)C(=O)N(C)[C@H](C(=O)N(C)C)CC(=O)N(C)[C@@H](CC)C(=O)N[C@@H]([C@@H](C)CC)C(=O)N(C)CC(=O)N(C)[C@H]3C/C=C\CCN(C3=O)[C@@H](Cc3ccc(C(F)(F)F)cc3)C(=O)N(C)CC(=O)N[C@@H](CCc3ccc(Cl)c(Cl)c3)C(=O)N2C1 [PP1249] | A (a compound having 10 or more and less than 20 is denoted as A) | A (a compound having 10 or more and less than 20 is denoted as A) |  | 
8 |  | 6.5 | 0.11 | CCCOC[C@H]1C(=O)N[C@@H]([C@@H](C)CC)C(=O)N(C)CC(=O)N(C)[C@H]2C/C=C\CCN(C2=O)[C@@H](Cc2ccc(C)cc2)C(=O)N(C)CC(=O)N[C@@H](CCc2ccc(C(F)(F)F)c(OC)c2)C(=O)N2C[C@H](OCC)C[C@H]2C(=O)NC2(CC(C)(C)C2)C(=O)N(C)[C@@H](C2CCCC2)C(=O)N(C)[C@H](C(=O)N(C)CC)CC(=O)N1C [PP2463] |  |  | A (a compound having 10 or more and less than 20 is denoted as A) | A (a compound having 10 or more and less than 20 is denoted as A)
9 |  | 25.3 | 0.068 | CCO[C@@H]1C[C@H]2C(=O)NC3(CCC3)C(=O)N(C)[C@@H](C3CCCC3)C(=O)N(C)[C@H](C(=O)N(C)C)CC(=O)N(C)[C@@H](CCOC)C(=O)N[C@@H]([C@@H](C)CC)C(=O)N(C)CC(=O)N(C)[C@H]3CCCCCN(C3=O)[C@@H](Cc3ccc(F)cc3)C(=O)N(C)CC(=O)N[C@@H](CCc3cc(F)c(C(F)(F)F)c(F)c3)C(=O)N2C1 [PP1194] |  |  | B (a compound having 3 or more and less than 10 is denoted as B) | B (a compound having 3 or more and less than 10 is denoted as B)
10 |  | 4.5 | 0.048 | CCC[C@H]1C(=O)N[C@@H]([C@@H](C)CC)C(=O)N(C2CC2)CC(=O)N(C)[C@H]2C/C=C\CCN(C2=O)[C@@H](Cc2ccc(C)cc2)C(=O)N(C)CC(=O)N[C@@H](CCc2ccc(C(F)(F)F)c(OC)c2)C(=O)N2C[C@@H](C)C[C@H]2C(=O)N(C)C2(CCC2)C(=O)N(C)[C@@H](C2CCCC2)C(=O)N(C)[C@H](C(=O)N(C)C)CC(=O)N1C [PP2366] |  |  | A (a compound having 10 or more and less than 20 is denoted as A) | A (a compound having 10 or more and less than 20 is denoted as A)
11 | 0.3 | 51.2 |  | CCCCCC[C@H]1C(=O)N[C@@H]([C@@H](C)CC)C(=O)N(C)CC(=O)N(C)[C@H]2C/C=C\CCN(C2=O)[C@@H](Cc2ccc(C(F)(F)F)cc2)C(=O)N(C)CC(=O)N[C@@H](CCc2ccc(Cl)c(Cl)c2)C(=O)N2C[C@H](OCC)C[C@H]2C(=O)NC2(CCC2)C(=O)N(C)[C@@H](C2CCCC2)C(=O)N(C)[C@H](C(=O)N(C)C)CC(=O)N1C [PP1252] | A (a compound having 10 or more and less than 20 is denoted as A) | AA (a compound having 20 or more is denoted as AA) |  | 
12 |  | 75.3 | 0.17 | CC[C@H](C)[C@@H]1NC(=O)[C@H](CC)N(C)C(=O)C[C@@H](C(=O)N(C)C)N(C)C(=O)[C@H](C2CCCC2)N(C)C(=O)C2(CCC2)NC(=O)CN(CC)C(=O)[C@H](CCc2cc(F)c(C(F)(F)F)c(F)c2)NC(=O)CN(C)C(=O)[C@H](Cc2ccc(C(F)(F)F)cc2)N2CC/C=C\C[C@@H](C2=O)N(C)C(=O)CN(C)C1=O [PP1143] |  |  | A (a compound having 10 or more and less than 20 is denoted as A) | A (a compound having 10 or more and less than 20 is denoted as A)
13 | 0.34 | 93.4 |  | CCO[C@@H]1C[C@H]2C(=O)NC3(CCC3)C(=O)N(C)[C@@H](C(CC)CC)C(=O)N(C)[C@H](C(=O)N(C)C)CC(=O)N(C)[C@@H](C)C(=O)N[C@@H]([C@@H](C)CC)C(=O)N(C)CC(=O)N(C)[C@H]3C/C=C\CCN(C3=O)[C@@H](Cc3ccc(C(F)(F)F)cc3)C(=O)N(C)CC(=O)N[C@@H](CCc3ccc(Cl)c(Cl)c3)C(=O)N2C1 [PP1214] | A (a compound having 10 or more and less than 20 is denoted as A) | AA (a compound having 20 or more is denoted as AA) |  | 
14 |  | 10.3 | 0.17 | CC[C@H](C)[C@@H]1NC(=O)[C@H](C(C)C)N(C)C(=O)C[C@@H](C(=O)N(C)CC)N(C)C(=O)[C@H](C2CCCC2)N(C)C(=O)C2(CCC2)NC(=O)[C@@H]2C[C@H](C)CN2C(=O)[C@H](CCc2cc(F)c(C(F)(F)F)c(F)c2)NC(=O)CN(C)C(=O)[C@H](Cc2ccc(C(F)(F)F)cc2)N2CC/C=C\C[C@@H](C2=O)N(C)C(=O)CN(C)C1=O [PP2078] |  |  | A (a compound having 10 or more and less than 20 is denoted as A) | AA (a compound having 20 or more is denoted as AA)

— patent publication US20240158446A1, “CYCLIC COMPOUND HAVING SELECTIVE INHIBITORY ACTION ON KRAS OVER HRAS AND NRAS” (CHUGAI SEIYAKU KABUSHIKI KAISHA, priority 2021, published 2024)
